# Like-named read-outs stand apart in the source and are kept apart here.
# Test: Drug solubility/uptake in VitreoDens, posterior segment model
# Method: Drugs were dissoluted in BSS in clinically relevant concentrations and placed in direct contact with VitreoDens in a ratio of 1:9. 50 μl of the hydrophilic phase were removed from the experiment after 1, 6 and 24 hours and drug concentration was determined using HPLC.
# For all the tested small molecule drugs HPLC or HPLC-MS (Agilent 1100 Series) with a reversed-phase C18 column (Chromolith® Performance RP-18e, Merck KGaA Darmstadt, Germany) was performed. Calibration curves and exemplary HPLC runs for each active substance are presented in the Supplementary Materials.
# Thus, the solubility of a variety of drugs was tested in VitreoDens in an established posterior segment model (FIGS. 7A and 7B) A >90% fill is mostly thought of as a sufficient fill. Thus, this ratio, given a vitreous cavity volume of 5 ml, was recreated in negatively charged glass vials. First, the drug is injected into the hydrophilic phase at a certain concentration, aliquots of the hydrophilic phase are recovered after certain time points to assess the distribution of the drug in the hydrophilic phase and in VitreoDens (FIG. 7A).
Structure (SMILES),"solubility in VitreoDens (in-vitro, posterior segment model, FIG. 7C)",solubility in VitreoDens
O=c1[nH]cc(F)c(=O)[nH]1 [5-Fluoruracil],excellent solubility,
CC(=O)[C@]1(O)Cc2c(O)c3c(c(O)c2[C@@H](O[C@H]2C[C@H](N)[C@H](O)[C@H](C)O2)C1)C(=O)c1ccccc1C3=O [Idarubicin],,excellent solubility
C=CC[C@@H]1/C=C(\C)C[C@H](C)C[C@H](OC)[C@H]2O[C@@](O)(C(=O)C(=O)N3CCCC[C@H]3C(=O)O[C@H](/C(C)=C/[C@@H]3CC[C@@H](O)[C@H](OC)C3)[C@H](C)[C@@H](O)CC1=O)[C@H](C)C[C@@H]2OC [Tacrolimus],,excellent solubility
C[C@@H](c1ncncc1F)[C@](O)(Cn1cncn1)c1ccc(F)cc1F [voriconazole],,excellent solubility

# Source: US20250345287A1, “COMPOSITION COMPRISING A MIXTURE OF AT LEAST ONE OIL AND ONE OR MORE SEMIFLUORINATED ALKANES, A USE OF THE COMPOSITION FOR TREATING A DISEASE AS WELL AS A METHOD OF PRODUCING THE COMPOSITION AND CORRESPONDING KITS” (Fluoron GmbH, priority 2024, published 2025)
